Results reported in ChEMBL document CHEMBL1201862, “PubChem BioAssay data set” (2004).
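The compound was tested at five concentrations on cells cultured in 96-well plates, with a 48-hour exposure period. GI50 marks 50% less growth.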 Activity calls are given as the source filed them. No stated cut-off is given here; in the data, active = GI50 up to about 1.1 µM and inactive = higher.

Legend:
Assay in all cases: NCI tumour cell line growth inhibition, 48 h
K562 = tested on: K562
SK-OV-3 = tested on: SK-OV-3
HCC 2998 = tested on: HCC 2998
EKVX = tested on: EKVX
NCI-H460 = tested on: NCI-H460
Hs-578T = tested on: Hs-578T
HCT-116 = tested on: HCT-116
MCF7 = tested on: MCF7
RPMI-8226 = tested on: RPMI-8226
LOX IMVI = tested on: LOX IMVI
HCT-15 = tested on: HCT-15
SN12C = tested on: SN12C
SK-MEL-28 = tested on: SK-MEL-28
M14 = tested on: M14
PC-3 = tested on: PC-3
MDA-MB-435 = tested on: MDA-MB-435
HL-60 = tested on: HL-60
SW-620 = tested on: SW-620
NCI/ADR-RES = tested on: NCI/ADR-RES
NCI-H522 = tested on: NCI-H522

CC(=O)c1cnc2oc3ccc(O)cc3c2c1-c1ccccc1
GI50 (K562): 41.6 µM (inactive) | GI50 (SK-OV-3): 14 µM (inactive) | GI50 (HCC 2998): 38 µM (inactive) | GI50 (EKVX): 23.9 µM (inactive) | GI50 (NCI-H460): 33.5 µM (inactive) | GI50 (Hs-578T): 14.2 µM (inactive) | GI50 (HCT-116): 57.1 µM (inactive) | GI50 (MCF7): 48.2 µM (inactive) | GI50 (RPMI-8226): 18.8 µM (inactive) | GI50 (LOX IMVI): 99.1 µM (inactive) | GI50 (HCT-15): 58.1 µM | GI50 (SN12C): 44.4 µM (inactive) | GI50 (SK-MEL-28): 17.5 µM (inactive) | GI50 (M14): > 100 µM (inactive) | GI50 (PC-3): 21.4 µM (inactive) | GI50 (MDA-MB-435): 64.9 µM (inactive) | GI50 (HL-60): 37.5 µM (inactive) | GI50 (SW-620): > 100 µM (inactive)

OC12COc3ccccc3C1Oc1ccccc1C2 (configuration not stated)
GI50 (K562): > 100 µM (inactive) | GI50 (SK-OV-3): > 100 µM (inactive) | GI50 (HCC 2998): > 100 µM (inactive) | GI50 (EKVX): > 100 µM (inactive) | GI50 (HCT-116): > 100 µM (inactive) | GI50 (MCF7): > 100 µM (inactive) | GI50 (NCI/ADR-RES): > 100 µM (inactive) | GI50 (RPMI-8226): > 100 µM (inactive) | GI50 (LOX IMVI): > 100 µM (inactive) | GI50 (HCT-15): > 100 µM | GI50 (SN12C): > 100 µM (inactive) | GI50 (NCI-H522): > 100 µM (inactive) | GI50 (M14): > 100 µM (inactive) | GI50 (PC-3): > 100 µM (inactive) | GI50 (MDA-MB-435): > 100 µM (inactive) | GI50 (SW-620): > 100 µM (inactive)

CCCCN(CCCC)CCC(O)c1cc2c(Cl)cc(Cl)cc2c2cc(C(F)(F)F)ccc12 (configuration not stated)
GI50 (K562): 6.73 µM (inactive) | GI50 (SK-OV-3): 14 µM (inactive) | GI50 (HCC 2998): 11.7 µM (inactive) | GI50 (EKVX): 14.5 µM (inactive) | GI50 (NCI-H460): 10.3 µM (inactive) | GI50 (HCT-116): 12.2 µM (inactive) | GI50 (MCF7): 10.2 µM (inactive) | GI50 (NCI/ADR-RES): 12.1 µM (inactive) | GI50 (RPMI-8226): 8.36 µM (inactive) | GI50 (LOX IMVI): 6.52 µM (inactive) | GI50 (HCT-15): 5.4 µM | GI50 (SN12C): 5.05 µM (inactive) | GI50 (NCI-H522): 17.5 µM (inactive) | GI50 (SK-MEL-28): 16.7 µM (inactive) | GI50 (M14): 8.93 µM (inactive) | GI50 (PC-3): 10.1 µM (inactive) | GI50 (MDA-MB-435): 12.6 µM (inactive) | GI50 (HL-60): 5.9 µM (inactive) | GI50 (SW-620): 11.3 µM (inactive)

O=c1/c(=C/c2ccccc2[N+](=O)[O-])sc2nc3ccccc3n12
GI50 (K562): 40.8 µM (inactive) | GI50 (SK-OV-3): > 31.6 µM (inactive) | GI50 (HCC 2998): 30.8 µM (inactive) | GI50 (EKVX): > 100 µM (inactive) | GI50 (NCI-H460): 37.8 µM (inactive) | GI50 (HCT-116): 21.7 µM (inactive) | GI50 (RPMI-8226): 12.6 µM (inactive) | GI50 (LOX IMVI): 17.1 µM (inactive) | GI50 (HCT-15): 17 µM | GI50 (SN12C): 44.1 µM (inactive) | GI50 (NCI-H522): 35.4 µM (inactive) | GI50 (SK-MEL-28): > 46.5 µM (inactive) | GI50 (M14): 39.7 µM (inactive) | GI50 (HL-60): 41.1 µM (inactive) | GI50 (SW-620): 24.1 µM (inactive)

CCOc1ccc(C(=O)/C=C2/Nc3ccccc3N/C2=C/C(=O)c2ccc(OCC)cc2)cc1
GI50 (K562): > 100 µM (inactive) | GI50 (SK-OV-3): > 100 µM (inactive) | GI50 (HCC 2998): > 100 µM (inactive) | GI50 (EKVX): > 100 µM (inactive) | GI50 (NCI-H460): 85.3 µM (inactive) | GI50 (Hs-578T): 37.6 µM (inactive) | GI50 (HCT-116): 78.2 µM (inactive) | GI50 (MCF7): > 100 µM (inactive) | GI50 (RPMI-8226): > 100 µM (inactive) | GI50 (LOX IMVI): > 100 µM (inactive) | GI50 (HCT-15): 96.4 µM | GI50 (SN12C): > 100 µM (inactive) | GI50 (NCI-H522): > 100 µM (inactive) | GI50 (SK-MEL-28): > 100 µM (inactive) | GI50 (M14): > 100 µM (inactive) | GI50 (PC-3): > 100 µM (inactive) | GI50 (MDA-MB-435): > 100 µM (inactive) | GI50 (HL-60): > 100 µM (inactive) | GI50 (SW-620): > 100 µM (inactive)

CC(=O)OCC1OC(n2c(=O)n(-c3ccccc3)c(=O)c3cc(Br)cc(Br)c32)C(OC(C)=O)C(OC(C)=O)C1OC(C)=O (configuration not stated)
GI50 (K562): > 100 µM (inactive) | GI50 (SK-OV-3): > 100 µM (inactive) | GI50 (HCC 2998): > 100 µM (inactive) | GI50 (EKVX): > 100 µM (inactive) | GI50 (NCI-H460): > 100 µM (inactive) | GI50 (HCT-116): > 100 µM (inactive) | GI50 (RPMI-8226): > 100 µM (inactive) | GI50 (LOX IMVI): > 100 µM (inactive) | GI50 (HCT-15): > 100 µM | GI50 (SN12C): > 100 µM (inactive) | GI50 (NCI-H522): > 100 µM (inactive) | GI50 (SK-MEL-28): > 100 µM (inactive) | GI50 (M14): > 100 µM (inactive) | GI50 (HL-60): > 100 µM (inactive) | GI50 (SW-620): > 100 µM (inactive)

Cc1cc(C)c2c(c1)N[S@@](=O)S2
GI50 (K562): 26.4 µM (inactive) | GI50 (SK-OV-3): 31.4 µM (inactive) | GI50 (HCC 2998): 39.6 µM (inactive) | GI50 (EKVX): 51.5 µM (inactive) | GI50 (NCI-H460): 21.8 µM (inactive) | GI50 (HCT-116): 17.1 µM (inactive) | GI50 (RPMI-8226): 34.7 µM (inactive) | GI50 (LOX IMVI): 15.3 µM (inactive) | GI50 (HCT-15): 16.5 µM | GI50 (SN12C): 19.4 µM (inactive) | GI50 (NCI-H522): 17.4 µM (inactive) | GI50 (SK-MEL-28): 28 µM (inactive) | GI50 (M14): 17 µM (inactive) | GI50 (HL-60): 26.4 µM (inactive) | GI50 (SW-620): 3.74 µM (inactive)

Cc1ccccc1C1OC(=O)c2ccc3ccccc3c21 (configuration not stated)
GI50 (K562): 3.07 µM (inactive) | GI50 (SK-OV-3): 2.52 µM (inactive) | GI50 (HCC 2998): 4 µM (inactive) | GI50 (EKVX): 7.4 µM (inactive) | GI50 (NCI-H460): 3.23 µM (inactive) | GI50 (HCT-116): 2.52 µM (inactive) | GI50 (RPMI-8226): 1.61 µM (inactive) | GI50 (LOX IMVI): 2.57 µM (inactive) | GI50 (HCT-15): 2.93 µM | GI50 (SN12C): 5.47 µM (inactive) | GI50 (NCI-H522): 1.82 µM (inactive) | GI50 (SK-MEL-28): 3.43 µM (inactive) | GI50 (M14): 2.97 µM (inactive) | GI50 (HL-60): 2.79 µM (inactive) | GI50 (SW-620): 4.52 µM (inactive)
